According to patent US9314029B2, “Control and repellency of mosquitoes” (BEDOUKIAN RESEARCH, INC., priority 2012, dated 2016):

Legend:
Assay type in all cases: in vivo
Aedes aegypti [1] = test: Repellency on treated membrane-covered blood-filled wells; conditions: 20 min; for Avg % Repellency: relative to control
Description: The invention is illustrated by, but not limited to, the following examples. • Five replicates of 250 adult female mosquitoes each were placed in clear plastic cages with access to five warmed, blood-filled, membrane-covered wells. The mosquitoes were Aedes aegypti unless otherwise noted. Membranes were treated with repellent. Five replicates were tested. Each replicate used a fresh batch of mosquitoes, blood and treated membranes. The number of mosquitoes probing each well was recorded at two minute intervals for 20 minutes. The total numbers of probes on each well were tallied at the end of the observation period and the average percentage repellency relative to the control was calculated for each formulation.

Aedes aegypti [2] = test: Toxicity to mosquitoes of treated surface (aluminum foil), 5 min exposure; conditions: 2.5% in ethanol, dried on foil
Description: A test was designed to determine if two test samples at 2 concentrations applied to a surface are toxic to mosquitoes. Aluminum foil squares, […] were treated with one of the test samples and after drying were placed on top of large Petri dishes, 6″ in diameter. Inverted polystyrene cups, 3.5″ in diameter and 3″ high, each with a circular hole drilled through the bottom, and the sides and top painted with Fluon, were used as the treatment containers. They were placed on top of the Petri dishes and secured with rubber bands. Mosquitoes were aspirated and gently blown through the drilled hole into the arena. A plastic disc was then placed over the hole. Five replicates of ten female Aedes aegypti were used for the test sample treatment and an additional 5 replicates of 10 mosquitoes were used for solvent control. Mosquitoes were constantly exposed to the dried test material for 5 minutes, after which time they were transferred into clean containers, where they were provided a sucrose solution for nourishment. The formal observations for knockdown were made at 1 and 4 hours. At 24 hours the numbers of live, moribund and dead mosquitoes were counted.

Aedes aegypti [3] = test: Human forearm-in-cage test, time to first confirmed bite; conditions: max 8 hours
Description: (§1) In addition, human testing was performed to determine the efficacy of compounds from structure (I). Mosquito species used are described in the tables below. Each test subject was exposed to 2 products each test day. The application rate was between 0.65 ml and 1 ml/250 cm^2 for all repellents. The actual amount of repellent used was based upon the amount that provides thorough coverage of the 250 cm^2 treatment area. A repellent was applied using either a micropipette or a syringe minus the needle. The repellents were then evenly spread on the treatment area with a gloved finger. Each test subject's forearms were allowed to air dry for approximately 30 minutes prior to the first exposure. The study coordinator or technician assisted the test subjects in inserting their arms into the test cages containing 200 mosquitoes, taking care not to rub them on the cloth sleeve, to confirm that the insects were biting. If fewer than 10 mosquitoes land on the untreated arm in 60 seconds (all would normally bite), fresh mosquitoes will be added. Typically, the ten (10) landings took place within 10-30 seconds. Both treated arms were inserted into a cage; there were two subjects (4 arms) per cage. The test subjects exposed their treated forearms to the mosquitoes in the test cages for 5 minutes. The subjects then remove their arms from the cages with assistance from the study coordinator or a technician. Exposures of each arm were repeated every 30 minutes until the repellent on that arm was determined to be no longer effective (‘breakdown’) or until 8 hours have elapsed, whichever occurred first. Breakdown occurs when the first confirmed bite is noted. A confirmed bite occurs when a bite is followed by a second bite in the same exposure period or in the next succeeding exposure period. The second bite becomes the confirming bite and the breakdown time is taken as the time of the first bite. The average of two repetitions is given.

[4] = tested on: Anopheles quadrimaculatus; test: as above; conditions: 10%, max 8 hours
Description: as §1

Culex quinquefasciatus = test: as above; conditions: 10%, max 8 hours
Description: as §1

Molecule | Avg # Probes (Aedes aegypti [1]; 7% in isopropanol) | Avg % Repellency (Aedes aegypti [1]; 7% in isopropanol) | further results
CCCCCC1CCC(=O)O1 (centres unmarked) [gamma-nonalactone] | 20.4 | 77.1% | –
CCCCCCCC1CC(=O)C=C(C)C1 (centres unmarked) [3-methyl-5-heptyl-2-cyclohexenone] | – | – | Avg # Probes (Aedes aegypti [1]; 5% in isopropanol): 0; Avg % Repellency (Aedes aegypti [1]; 5% in isopropanol): 99%; 1 hr knockdown (Aedes aegypti [2]; 1 hr): 100%; 4 hr knockdown (Aedes aegypti [2]; 4 hr): 100%; 24 hr mortality (Aedes aegypti [2]; 24 hr): 98%
CCC(C)=CCCC(C)=CCC1CCCC1O (centres unmarked) [methyl apritol] | 6.6 | 91.9% | Avg # Probes (Aedes aegypti [1]; 10% in isopropanol): 6.8; Avg % Repellency (Aedes aegypti [1]; 10% in isopropanol): 89.2%
CCCCCCCCCC1(C)CCC(=O)O1 (centres unmarked) [gamma Methyl Tridecalactone] | – | – | Avg # Probes (Aedes aegypti [1]; 5% in isopropanol): 4; Avg % Repellency (Aedes aegypti [1]; 5% in isopropanol): 96%
CCCCCC1C(=O)CCC1CC(=O)OCCC (stereo not drawn) [Propyl Dihydrojasmonate - low epi, Propyl Dihydrojasmonate] | – | – | Avg # Probes (Aedes aegypti [1]; 2.5% in isopropanol): 6; Avg % Repellency (Aedes aegypti [1]; 2.5% in isopropanol): 85%
CCC(C)CCCC(C)CCC1CCCC1=O (centres unmarked) [tetrahydromethyl apritone] | 11 | 74.9% | –
dihydrojasmolactone | 0 | 100% | –
CC(C)CCCC(C)CCC1CCCC1=O (centres unmarked) [tetrahydroapritone] | 3.8 | 93.7% | –
CCCCCCCCCC1CCCC(=O)O1 (centres unmarked) [delta-tetradecalactone] | 1.6 | 97.3% | –
CCCCCC1C(O)CCC1CC(=O)OCC (centres unmarked) [Ethyl Dihydrojasmolate] | 0 | 100% | –
CCCCCC1C(=O)CCC1CC(=O)OCCC (stereo not drawn) [Propyl Dihydrojasmonate - high epi, Propyl Dihydrojasmonate] | – | – | Avg # Probes (Aedes aegypti [1]; 2.5% in isopropanol): 2; Avg % Repellency (Aedes aegypti [1]; 2.5% in isopropanol): 95%
CCCCCC1C(=O)CCC1CC(C)=O (centres unmarked) [amyl cyclopentanone propanone] | 0 | 100% | –
CC1CCC(C(C)(C)O)C(O)C1 (centres unmarked) [PMD, p-Menthane-3,8-diol, reference compound] | 9 | 79.2% | 100% bite protection time (Aedes aegypti [3]; 5% in isopropanol): 2.75 h; 100% bite protection time (Aedes aegypti [3]; 10% in isopropanol): 6.25 h; 100% bite protection time [4]: 6.75 h; 100% bite protection time (Culex quinquefasciatus): 4.25 h
CCCCCCOC(=O)CC1CCC(=O)C1CCCCC (centres unmarked) [Hexyl Dihydrojamonate] | 30.4 | 66.1% | –
CCCCCCC1CC(=O)C=C(C)C1 (centres unmarked) [3-methyl-5-hexyl-2-cyclohexenone] | – | – | Avg # Probes (Aedes aegypti [1]; 5% in isopropanol): 0; Avg % Repellency (Aedes aegypti [1]; 5% in isopropanol): 100%
CCCCCCCCCC1CCC(=O)O1 (centres unmarked) [gamma-tridecalactone] | 1.8 | 97.5% | Avg # Probes (Aedes aegypti [1]; 5% in isopropanol): 3.1; Avg % Repellency (Aedes aegypti [1]; 5% in isopropanol): 94.4%; 100% bite protection time (Aedes aegypti [3]; 30% in isopropanol): 1 h
